Test results reported in patent publication US7915005B2, “Methods for detecting sleepiness” (Washington University in St. Louis, priority 2005, dated 2011).
Entries after “also recorded” stand apart in the source; their conditions may differ. Like-named read-outs stand apart in the source and are kept apart here.

Legend:
[1] = system: wild-type flies; conditions: literature and unpublished data; cited from earlier work
[2] = system: wild-type flies; assay: Pharmacologically induced waking in flies (Trikinetics activity monitoring); format: in vivo, Drosophila melanogaster; conditions: drug dissolved in food
Procedure: (§1) Three day old female flies were placed in 65 mm glass tubes and sleep parameters were continuously evaluated throughout all experiments using the Trikinetics activity monitoring system as previously described (Shaw, P J et al., 2000. Science 287: 1834-1837; Shaw, P J et al., 2002. Nature 417: 287-291) (www.Trikinetics.com). […] Three independent replicates of 32 flies were conducted for each time point. Following SD, two thirds of the flies from each group were frozen and RNA was extracted from whole heads. The remaining one third of the flies were monitored for an additional 24 h to assay the size of the homeostatic response. Using this protocol, both gene expression and behavior can be evaluated in siblings that have been exposed to identical environments and experimental manipulations.
Pharmacological studies were conducted on female Canton-s flies. Three-day old Cs female flies were individually placed into 65 mm glass tubes in the Trikinetics activity monitoring system and evaluated for two days under LD. […] It could be determined, therefore, if the fly had ingested the drug not only by its behavior, but also by observing the dye in its abdomen. The following morning, after 14 h of drug treatment, two thirds of the flies from each group were frozen and RNA was extracted from whole heads and the amount of dye in the abdomen was evaluated. […]

[3] = system: wild-type flies; assay: Homeostatic response (sleep recovered) in the 24 h after 14 h of drug-induced waking; format: in vivo, Drosophila melanogaster; conditions: for homeostatic response / compensation for sleep lost during drug-induced waking: 14 h on drug, 24 h recovery, caffeine 2.5 mg/ml, methamphetamine 1 mg/ml
Procedure: as §1
(§2) Pharmacological studies were conducted on female Canton-s flies. Three-day old Cs female flies were individually placed into 65 mm glass tubes in the Trikinetics activity monitoring system and evaluated for two days under LD. […] All groups had similar amounts of baseline sleep. In all cases, the drug was dissolved in food along with an inert dye. It could be determined, therefore, if the fly had ingested the drug not only by its behavior, but also by observing the dye in its abdomen. The following morning, after 14 h of drug treatment, two thirds of the flies from each group were frozen and RNA was extracted from whole heads and the amount of dye in the abdomen was evaluated. The remaining one third of the flies were monitored for an additional 24 h to assay the size of the homeostatic response.
Sustained periods of waking in the fly can be induce pharmacologically (Hendricks, J C et al., 2000. Neuron 25: 129-138; Shaw, P J et al., 2000. Science 287: 1834-1837). […] Therefore wild-type flies were exposed to either caffeine or methamphetamine for 14 h and evaluated the magnitude of the homeostatic response. As above, gene expression was evaluated using qPCR and one third of the flies were allowed to recover for 24 h after drug removal and regular food was restored. […]

[4] = system: Amy/Luc flies; assay: Bioluminescence recording in Amy/Luc flies (amylase promoter linked to firefly luciferase); format: in vivo, Drosophila melanogaster; conditions: caffeine 2.5 mg/ml from the morning after a full night's sleep, recorded 12 h, n=9
Procedure: Prior to luminescence recordings, sleep was evaluated for 2 days in female Amy/Luc flies as described above with the exception that they were maintained on 0.5% sucrose supplemented with 1 mM beetle luciferin (Promega, Madison Wis.). On day 3, flies were sleep deprived for 12 h (n=9) or served as untreated controls (n=9). Flies that were sleep deprived were removed from their 65 mm glass tubes and placed into Petri dishes with 200 μl of fresh 0.5% sucrose 1 mM beetle luciferin. Siblings that had not been sleep deprived were placed into Petri dishes with 2.5 mg/ml of caffeine added to the 0.5% sucrose 1 mM beetle luciferin. Bioluminescence was subsequently recorded in 1 min bins for 12 h under photomultiplier tubes (HC135-11MOD; Hamamatsu, Shizouka, Japan) as previously described (Abraham, U, et al., 2005. J Neurosci 25: 8620-8626). Amy/Luc flies that had never been exposed to luciferin were recorded for 12 h and served as a blank. Luminescence for SD and caffeine treated flies was subtracted from the blank and smoothed using a 3 h running average. Two independent replicates were conducted.
To determine whether amylase can provide an assessment of sleep drive in real-time, a Drosophila line in which the promoter for amylase was linked to the firefly luciferase (Amy/Luc) was evaluated (Hickey, D A, et al., 1994. Proc Natl Acad Sci USA 91: 11109-11112). […]

[5] = system: Amylase mRNA (CG18640); assay: qPCR of Amylase (CG18640) mRNA from whole heads after drug-induced waking; format: in vivo, Drosophila melanogaster; conditions: wild-type fly heads, immediately after 14 h of drug-induced waking; caffeine 2.5 mg/mL, methamphetamine 1 mg/ml
Procedure: as §2
Total RNA was isolated from fly heads using Trizol (Invitrogen, Carlsbad, Calif.) following the manufacturers protocol. […] Values were expressed as a percentage of untreated animals and were evaluated using a one-way ANOVA.
Sustained periods of waking in the fly can be induce pharmacologically (Hendricks, J C et al., 2000. Neuron 25: 129-138; Shaw, P J et al., 2000. Science 287: 1834-1837). […] Therefore wild-type flies were exposed to either caffeine or methamphetamine for 14 h and evaluated the magnitude of the homeostatic response. […]

[6] = system: amylase activity; assay: Amylase activity in fly homogenates after paraquat stress (Infinity Amylase reagent); format: in vivo, Drosophila melanogaster; conditions: Cs female flies, 20 μM paraquat in 1% agar 5% sucrose for 16 h
Procedure: Amylase activity was evaluated following 28 h of sleep deprivation in Cs flies to match the duration of waking used in the human experiments. Female Cs flies were sleep deprived for 28 h beginning at lights out (8 pm). Whole body homogenates were extracted from 4 groups of 5 flies and compared to untreated circadian-matched controls; experiments were conducted in duplicate. Amylase activity was determined using the Infinity Amylase reagent (TR25421; Thermo Electron Corp, Louisville, Co., USA) according to the manufacturer's instructions. All samples were assayed in quadruplicate. To evaluate the effects of stress on amylase activity, Cs females were placed onto 20 μM paraquat dissolved in 1% agar 5% sucrose for 16 h and sacrificed at the same circadian time as the 28 h SD flies and their controls.

[7] = system: flies; conditions: 20 μM paraquat, exposures longer than 16 h; Shaw et al. 2002; cited from earlier work

CC(N)Cc1ccccc1 (stereo not shown) [amphetamine]
waking produced by the drug [1]: produce waking

Cn1c(=O)c2c(ncn2C)n(C)c1=O [caffeine]
waking produced by the drug [2]: produce sustained periods of waking
lost sleep recovered ([3]; 14 h of caffeine-induced waking, FIG. 5A): 30-50%
homeostatic response / compensation for sleep lost during drug-induced waking [3]: exhibit a rebound of similar magnitude as that seen following manual SD
bioluminescence (counts/min) in Amy/Luc flies [4]: increased as the animals spent more time on caffeine; also recorded: progressive increase in bioluminescence
Amylase (CG18640) mRNA expression vs. untreated controls [5]: strongly activated; also recorded: exhibit significant increases in Amylase mRNA; also recorded: elevated

CN[C@@H](C)Cc1ccccc1 [methamphetamine]
waking produced by the drug [2]: produce sustained periods of waking
homeostatic response / compensation for sleep lost during drug-induced waking [3]: do not compensate for the lost sleep; also recorded: do not induce a homeostatic response
Amylase (CG18640) mRNA expression vs. untreated controls [5]: not activated; also recorded: do not induce Amylase mRNA; also recorded: not after waking induced by methamphetamine

COC(=O)C(c1ccccc1)C1CCCCN1 (stereo not shown) [methylphenidate]
waking produced by the drug [1]: produce waking

NC(=O)C[S+]([O-])C(c1ccccc1)c1ccccc1 (stereo not shown) [modafinil]
waking produced by the drug [1]: produce waking

C[n+]1ccc(-c2cc[n+](C)cc2)cc1 [paraquat]
amylase activity [6]: did not alter Amylase activity
lethality on paraquat [7]: flies begin to die during longer exposures
